Measurements published in patent US9526796B2, “Peptide-based in vivo siRNA delivery system” (priority 2010, dated 2016).
Non-standard residues stand in square brackets, D forms with d. No end group written: not given here. *: point of attachment. Nle = CCCC[C@H](N)C(=O)O; Cbz = O=C(OCc1ccccc1)*

System: ApoB
Test: Knockdown of endogenous serum ApoB in mice after co-injection of masked melittin delivery peptide and ApoB siRNA-cholesterol conjugate
Assay type: in vivo
Protocol: RNAi polynucleotide conjugates and masked melittin peptides were synthesized as described above. Six to eight week old mice (strain C57BL/6 or ICR, ˜18-20 g each) were obtained from Harlan Sprague Dawley (Indianapolis Ind.). Mice were housed at least 2 days prior to injection. Feeding was performed ad libitum with Harlan Teklad Rodent Diet (Harlan, Madison Wis.). Mice were injected with 0.2 mL solution of delivery peptide and 0.2 mL siRNA conjugates into the tail vein. For simultaneous injection of delivery peptide and siRNA, the siRNA-conjugate was added to modified peptide prior to injection and the entire amount was injected. The composition was soluble and nonaggregating in physiological conditions. Solutions were injected by infusion into the tail vein.
Mice were fasted for 4 h (16 h for rats) before serum collection by submandibular bleeding. For rats blood was collected from the jugular vein. Serum ApoB protein levels were determined by standard sandwich ELISA methods. Briefly, a polyclonal goat anti-mouse ApoB antibody and a rabbit anti-mouse ApoB antibody (Biodesign International) were used as capture and detection antibodies respectively. An HRP-conjugated goat anti-rabbit IgG antibody (Sigma) was applied afterwards to bind the ApoB/antibody complex. Absorbance of tetramethyl-benzidine (TMB, Sigma) colorimetric development was then measured by a Tecan Safire2 (Austria, Europe) microplate reader at 450 nm.
Melittin was reversibly modified with CDM-NAG as described above. The indicated amount of melittin was then co-injected with the 200 μg ApoB siRNA-cholesterol conjugate. Effect on ApoB levels were determined as described above.
Melittin was reversibly modified with CDM-NAG as described above. The indicated amount of melittin was then co-injected with 50 μg ApoB siRNA-cholesterol conjugate. Effect on ApoB levels were determined as described above.
Melittin was reversibly modified with CDM-NAG (5×) as described above. The indicated amount of melittin was then co-injected with the indicated amount of ApoB siRNA-cholesterol conjugate. Effect on ApoB levels were determined as described above.
Melittin was reversibly modified with the indicated amount of CDM-NAG as described above. 50 μg melittin was then co-injected with the 100 μg ApoB siRNA-cholesterol conjugate. Effect on ApoB levels were determined as described above.
Melittin peptides having the indicated sequence were reversibly modified with CDM-NAG (5×) as described above. The indicated amount of melittin was then co-injected with the indicated amount of ApoB siRNA-cholesterol conjugate. Effect on ApoB levels were determined as described above.
Melittin peptides containing the indicated PEG amino terminal modifications were synthesized as described above. The PEG amino terminal modified melittin peptides were then reversibly modified with 5×CDM-NAG as described above. The indicated amount of Melittin was then co-injected with the 100-200 μg ApoB siRNA-cholesterol conjugate. Effect on ApoB levels were determined as described above. Addition of PEG less than 5 kDa in size decreased toxicity of the melittin peptides.

[1] = CDM-NAG (5×), 400 μg peptide per mouse, 200 μg siRNA per mouse
[2] = CDM-NAG (5×), 100 μg peptide per mouse, 100 μg siRNA per mouse
[3] = CDM-NAG (5×), 400 μg peptide per mouse, 100 μg siRNA per mouse

| Substance | percent knockdown [2] | percent knockdown [3] | also measured |
| --- | --- | --- | --- |
| (Ac-CIGAVLKVLTTGLPALISWIKRKRQQ-NH2)2 | – | – | percent knockdown [1]: 45% |
| Ac-CIGAVLKVLTTGLPALISWIKRKRQQ-NH2 | – | – | percent knockdown [1]: 85% |
| Acetyl-dMel-NH2 (Seq ID 107): melittin peptide derivative (Ac-G[dI]G[dA][dI][dL][dK][dV][dL][dA][dT]G[dL][dP][dT][dL][dI][dS][dW][dI][dK][dN][dK][dR][dK][dQ]-NH2; SMILES CC[C@@H](C)[C@@H](NC(=O)CNC(C)=O)C(=O)NCC(=O)N[C@H](C)C(=O)N[C@@H](C(=O)N[C@H](CC(C)C)C(=O)N[C@H](CCCCN)C(=O)N[C@@H](C(=O)N[C@H](CC(C)C)C(=O)N[C@H](C)C(=O)N[C@@H](C(=O)NCC(=O)N[C@H](CC(C)C)C(=O)N1CCC[C@@H]1C(=O)N[C@@H](C(=O)N[C@H](CC(C)C)C(=O)N[C@@H](C(=O)N[C@H](CO)C(=O)N[C@H](Cc1c[nH]c2ccccc12)C(=O)N[C@@H](C(=O)N[C@H](CCCCN)C(=O)N[C@H](CC(N)=O)C(=O)N[C@H](CCCCN)C(=O)N[C@H](CCCNC(=N)N)C(=O)N[C@H](CCCCN)C(=O)N[C@H](CCC(N)=O)C(N)=O)[C@H](C)CC)[C@H](C)CC)[C@H](C)O)[C@H](C)O)C(C)C)[C@H](C)CC) | 89% | – | – |
| Apis Mellifera (Big Honey Bee; Seq ID 50): Apis mellifera melittin | – | 72% | – |
| C-Mel G1L (Seq ID 51): melittin peptide derivative (CLIGAILKVLATGLPTLISWIKNKRKQ; N-terminal cysteine; melittin-like peptide derive from Apis florea) | 89% | – | – |
| C-dMel G1Nle (Seq ID 52): melittin peptide derivative (C[Nle]IGAILKVLATGLPTLISWIKNKRKQ; also: D-amino acids (dMel), positions not given here) | 84% | – | – |
| CBZ-Mel (Seq ID 108): melittin peptide derivative (Cbz-GIGAILKVLATGLPTLISWIKNKRKQ) | – | – | percent knockdown (CDM-NAG (5×), 100 μg peptide per mouse, 80 μg siRNA per mouse): 96% |
| CFK-G1L dMel-C (Seq ID 69): melittin peptide derivative (CFKLIGAILKVLATGLPTLISWIKNKRKQC; not fully specified (some residues); cysteine pairing not given here) | 79% | – | – |
| CKLK-Mel G1L (Seq ID 57): melittin peptide derivative; in Table 9 also with amino terminal NAG-(PEG)2/4/8 or PEG (5k) (CKLKLIGAILKVLATGLPTLISWIKNKRKQ; N-terminal CKLK extension; melittin-like peptide derive from Apis florea) | – | – | percent knockdown (5× CDM-NAG, amino terminal NAG-(PEG)2, 25 μg peptide, 100 μg siRNA): 15%; percent knockdown (5× CDM-NAG, amino terminal NAG-(PEG)2, 50 μg peptide, 100 μg siRNA): 83%; percent knockdown (5× CDM-NAG, amino terminal NAG-(PEG)4, 25 μg peptide, 100 μg siRNA): 58%; percent knockdown (5× CDM-NAG, amino terminal NAG-(PEG)4, 50 μg peptide, 100 μg siRNA): 81%; percent knockdown (5× CDM-NAG, amino terminal NAG-(PEG)4, 100 μg peptide, 100 μg siRNA): 94%; percent knockdown (5× CDM-NAG, amino terminal NAG-(PEG)8, 25 μg peptide, 100 μg siRNA): 58%; percent knockdown (5× CDM-NAG, amino terminal NAG-(PEG)8, 50 μg peptide, 100 μg siRNA): 89%; percent knockdown (5× CDM-NAG, amino terminal NAG-(PEG)8, 100 μg peptide, 100 μg siRNA): 96%; percent knockdown (5× CDM-NAG, amino terminal PEG (5k), 100 μg peptide, 100 μg siRNA): 90%; percent knockdown (5× CDM-NAG, no PEG modification, 150 μg peptide, 100 μg siRNA): 91%; percent knockdown (5× CDM-NAG, no PEG modification, 400 μg peptide, 100 μg siRNA): 97%; percent knockdown (CDM-NAG (5×), 150 μg peptide per mouse, 100 μg siRNA per mouse): 91% |
| CKLK-dMel G1Nle (Seq ID 112): melittin peptide derivative (CKLK[Nle]IGAILKVLATGLPTLISWIKNKRKQ; also: D-amino acids (dMel), positions not given here) | – | – | percent knockdown (CDM-NAG (5×), 200 μg peptide per mouse, 100 μg siRNA per mouse): 84% |
| Dimethyl G-Mel G1L (Seq ID 53): melittin peptide derivative (dimethyl-GLIGAILKVLATGLPTLISWIKNKRKQ) | 91% | – | – |
| G1A (Seq ID 2): melittin peptide derivative (AIGAILKVLATGLPTLISWIKNKRKQ; melittin-like peptide derive from Apis florea) | 88% | – | – |
| G1C (Seq ID 3): melittin peptide derivative (CIGAILKVLATGLPTLISWIKNKRKQ; melittin-like peptide derive from Apis florea) | 37% | – | – |
| G1F dMel (Seq ID 4): melittin peptide derivative ([dF][dI]G[dA][dI][dL][dK][dV][dL][dA][dT]G[dL][dP][dT][dL][dI][dS][dW][dI][dK][dN][dK][dR][dK][dQ]) | – | – | percent knockdown (CDM-NAG (5×), 100 μg peptide per mouse, 50 μg siRNA per mouse): 94% |
| G1H (Seq ID 5): melittin peptide derivative (HIGAILKVLATGLPTLISWIKNKRKQ; melittin-like peptide derive from Apis florea) | – | 78% | – |
| G1L Mel (1-23) (Seq ID 71): melittin peptide derivative (LIGAILKVLATGLPTLISWIKNK; melittin-like peptide derive from Apis florea) | – | 69% | – |
| G1L Mel-Cys (Seq ID 63): melittin peptide derivative (LIGAILKVLATGLPTLISWIKNKRKQC; C-terminal cysteine; melittin-like peptide derive from Apis florea) | – | 82% | – |
| G1L Mel-KLKC (Seq ID 65): melittin peptide derivative (LIGAILKVLATGLPTLISWIKNKRKQKLKC; C-terminal KLKC extension; melittin-like peptide derive from Apis florea) | 97% | – | – |
| G1L d(1-11)-1(12-26) (Seq ID 109): melittin peptide derivative ([dL][dI]G[dA][dI][dL][dK][dV][dL][dA][dT]GLPTLISWIKNKRKQ) | 70% | – | – |
| G1L dMel-C (Seq ID 114): melittin peptide derivative ([dL][dI]G[dA][dI][dL][dK][dV][dL][dA][dT]G[dL][dP][dT][dL][dI][dS][dW][dI][dK][dN][dK][dR][dK][dQ]C) | – | – | percent knockdown (CDM-NAG (5×), 50 μg peptide per mouse, 100 μg siRNA per mouse): 93% |
| G1L retro-dMel-KLK-PEG(5k) (Seq ID 115): melittin peptide derivative (KLK[dQ][dK][dR][dK][dN][dK][dI][dW][dS][dI][dL][dT][dP][dL]G[dT][dA][dL][dV][dK][dL][dI][dA]G[dI][dL]; also: PEG 5k conjugated) | 32% | – | – |
| G1L retroMel-KLK-Stearoyl (Seq ID 75): melittin peptide derivative (KLKQKRKNKIWSILTPLGTALVKLIAGIL; also: stearoyl, site not given here) | – | 50% | – |
| G1L retroMel-Stearoyl (Seq ID 74): melittin peptide derivative (QKRKNKIWSILTPLGTALVKLIAGIL; also: stearoyl, site not given here) | – | 56% | – |
| G1L, G12L (Seq ID 22): melittin peptide derivative (LIGAILKVLATLLPTLISWIKNKRKQ; melittin-like peptide derive from Apis florea) | – | 93% | – |
| G1L, I2L, 15L, I17L, I20L (Seq ID 43): melittin peptide derivative (LLGALLKVLATGLPTLLSWLKNKRKQ; melittin-like peptide derive from Apis florea) | – | 96% | – |
| G1L, I2Nle, I5Nle, I17Nle, I20Nle (Seq ID 44): melittin peptide derivative (L[Nle]GA[Nle]LKVLATGLPTL[Nle]SW[Nle]KNKRKQ) | 99% | – | – |
